For orientation: IC50 means the midpoint of a concentration-inhibition curve. By inhibition is commonly meant the share of the control response that was lost under treatment.

Where a name gives a salt, the structure may show the parent alone. Read-outs that look alike come from different tables or passages of the source.

The target in assay [1] is porcine pancreatic elastase (Sus scrofa, UniProt P00772). As to the kind of experiment: In vitro inhibition of elastase enzymatic activity (hydrolysis of Suc-Ala-Ala-Pro-LeupNA), Table I. The settings on record: 25° C., pH 8.8, concentration in the final solution. The class given is biochemical. As to the method: (§1) a) In vitro inhibition of elastase enzymatic activity.
(§2) The variation of the rate of hydrolysis of a substrate specific of elastases was studied in the presence and absence of the test compound according to a conventional technique. The experiments were performed with porcine pancreatic elastase, and human neutrophil elastase extracted from purulent sputum; the enzyme substrate was a chromogenic tetrapeptide, N-succinyl-L-alanyl-L-alanyl-[…]-L-leucyl-p-nitroanilide, designated Suc-Ala-Ala-Pro-LeupNA, which, on hydrolysis, liberates p-nitroaniline, the appearance of which in the medium is followed in a spectrophotometer; alpha1 -antitrypsin was used as a standard inhibitor. The experiments were performed at 25° C., the spectrophotometric measurement being made at 410 nm.
(§3) The solution of substrate was prepared by dissolving 5.8 mg of anilide in 20 ml of buffer solution containing 24.22 g/l of Tris-HCl with 754 mg/l of CaCl2, adjusted to pH 8.8.
(§4) The solution of enzyme in the same buffer was at a concentration of 0.1 g/l, while the solutions of test compound in the same buffer were at concentrations of between 0.1 mM and 0.01 μM.
(§5) 200 μl of solution of substrate, 75 μl of buffer solution and 200 μl of solution of the test compound, or of buffer solution in the case of the controls, were mixed in tubes. After 20 minutes at 25° C., the tube was placed in the recording spectrophotometer and 25 μl of the solution of enzyme were added to this medium; the change in the optical density ΔOD was recorded for 30 seconds.
(§6) The percentage inhibition is defined as the difference between the change in OD for the control sample and that for the test sample, divided by the change for the control and multiplied by 100. [formula]

The target in another assay is T1, human leucocyte elastase (Homo sapiens, UniProt P08246).
T1 construct: human neutrophil elastase extracted from purulent sputum; from tissue; host or cells: purulent sputum
T1 sequence (P08246 30-247 limits assumed): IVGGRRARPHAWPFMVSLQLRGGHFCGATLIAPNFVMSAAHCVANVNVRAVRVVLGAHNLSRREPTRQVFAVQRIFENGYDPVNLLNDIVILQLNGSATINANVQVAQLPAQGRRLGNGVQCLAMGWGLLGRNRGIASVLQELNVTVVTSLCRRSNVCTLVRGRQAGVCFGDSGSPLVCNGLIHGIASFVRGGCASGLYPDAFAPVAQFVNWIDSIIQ
The assay can be described thus: In vitro inhibition of elastase enzymatic activity (hydrolysis of Suc-Ala-Ala-Pro-LeupNA), Table II. The format is biochemical. The settings on record: human leucocyte (neutrophil) elastase from purulent sputum; 25° C.; pH 8.8; concentration in the final solution. As for the experimental part:
as §1, §2, §3, §4, §5, §6

The subject of another assay is platelet aggregation. As to the kind of experiment: Platelet aggregation-inhibitory activity in rats (blood taken from treated animals, ADP or collagen added). The class given is in vivo. The settings on record: Rattus norvegicus, po, orally. An excerpt:
b) Platelet aggregation-inhibitory activity in rats.

The mark [2] stands for this setting: ADP, read-out: percentage inhibition of aggregation, ADP.
Setting [3] is: collagen, read-out: percentage inhibition of aggregation, collagen.

Chain of porcine pancreatic elastase (P00772 27-266): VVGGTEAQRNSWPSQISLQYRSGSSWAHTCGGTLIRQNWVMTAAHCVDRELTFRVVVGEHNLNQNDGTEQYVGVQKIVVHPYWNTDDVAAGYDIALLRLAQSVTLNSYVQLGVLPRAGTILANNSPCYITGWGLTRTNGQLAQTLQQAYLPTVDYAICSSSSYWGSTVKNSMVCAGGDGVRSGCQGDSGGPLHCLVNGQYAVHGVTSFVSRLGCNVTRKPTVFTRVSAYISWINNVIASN

For the compound `COc1ccc(CN2CCc3sc(OC(=O)C(C)(C)C)cc3C2)cc1` [SR 27261], the IC50 in assay [1] came to 4.5 µM; at human leucocyte elastase, 3.2 µM.

Take `CC(C)(C)C(=O)Oc1cc2c(s1)CCN(Cc1ccccc1)C2` [SR 26827]: the IC50 worked out at 9 µM in assay [1] and 3.4 µM on human leucocyte elastase. The inhibition at 100 mg/kg stood at 48% in the assay on platelet aggregation (setting [2]) and 21% with platelet aggregation (setting [3]).

Consider `CC(C)C(=O)Oc1cc2c(s1)CCN(Cc1ccc(Cl)cc1)C2` [SR 26769], for which the figures for the 50% inhibitory concentration (IC50) (in assay [1]; on human leucocyte elastase) were 7 µM and 30 µM, respectively.

As for `CCOC(=O)Oc1cc2c(s1)CC[N+]([O-])(Cc1ccccc1Cl)C2` (stereo not shown) [SR 26894], in assay [1], the IC50 was determined as 24 µM.

In the case of `CCCN1CCc2sc(OC(=O)C(C)(C)C)cc2C1` [SR 27318, 5-propyl-4,5,6,7-tetrahyirothieno[3,2-c]pyrid-2-yl t-butyrate], the IC50 in assay [1] is 10 µM; against human leucocyte elastase, 3 µM.

As for `CC(C)C(=O)Oc1cc2c(s1)CCN(Cc1ccccc1Cl)C2` [SR 26772], the IC50 in assay [1] came to 5.8 µM; against human leucocyte elastase, 2.6 µM.

Turning to `CC(C)(C)C(=O)Oc1cc2c(s1)CC[N+]([O-])(Cc1ccccc1)C2` (stereo not shown) [SR 26986], the results for the IC50 (in assay [1]; on human leucocyte elastase) were 2.2 µM and 2.3 µM, respectively.

Consider `CC(c1ccccc1)N1CCc2sc(OC(=O)C(C)(C)C)cc2C1` (racemic) [SR 27319], for which the values for the IC50 (in assay [1]; against human leucocyte elastase) were 4.5 µM and 3.4 µM, respectively.

For `CC(C)(C)C(=O)Oc1cc2c(s1)CC[N+]([O-])(Cc1ccc(Cl)cc1)C2` (stereo not shown) [SR 26977], the 50% inhibitory concentration (IC50) in assay [1] stood at 2.5 µM; against human leucocyte elastase, 1.8 µM.

As for `COC(=O)C(c1ccccc1Cl)N1CCc2sc(OC(=O)C(C)C)cc2C1` (stereo not shown) [SR 26886], the IC50 in assay [1] came out at 2.9 µM; against human leucocyte elastase, 30 µM.

With `CC(C)(C)C(=O)Oc1cc2c(s1)CCNC2` [SR 26842, 4,5,6,7,-tetrahydrothieno[3,2-c]pyrid-2-yl t-butyrate], the values for the half-maximal inhibitory concentration (IC50) (in assay [1]; against human leucocyte elastase) were 10 µM and 3.2 µM, respectively.

`CC(C)C(=O)Oc1cc2c(s1)CCN(Cc1ccccc1)C2` [SR 26829]: the IC50 in assay [1] came out at 8 µM; against human leucocyte elastase, 24 µM.

As to `CC(C)(C)C(=O)Oc1cc2c(s1)CC[N+]([O-])(Cc1ccccc1Cl)C2` (stereo not shown) [SR 26831], the IC50 in assay [1] came out at 5 µM; at human leucocyte elastase it was 2.5 µM.

As for `CC(C)(C)C(=O)Oc1cc2c(s1)CC[N+](C)([O-])C2` (stereo not shown) [SR 27165], half-maximal inhibition in assay [1] (IC50) required 10 µM.

For `CCCC(=O)Oc1cc2c(s1)CCN(Cc1ccccc1Cl)C2` [PCR 4094], the half-maximal inhibitory concentration (IC50) is 2 µM in assay [1] and 3.5 µM on human leucocyte elastase.

As to `CCC[N+]1([O-])CCc2sc(OC(=O)C(C)(C)C)cc2C1` (stereo not shown) [SR 27325], the results for the IC50 (in assay [1]; on human leucocyte elastase) were 15 µM and 0.7 µM, respectively.

Take `CCCC(=O)Oc1cc2c(s1)CC[N+]([O-])(Cc1ccccc1Cl)C2` (stereo not shown) [SR 26832]: the 50% inhibitory concentration (IC50) in assay [1] stood at 7 µM; at human leucocyte elastase, 5.6 µM.

With `CC(c1ccccc1)[N+]1([O-])CCc2sc(OC(=O)C(C)(C)C)cc2C1` (stereo not shown) [SR 27354], the IC50 turned out to be 10 µM in assay [1] and 2.6 µM against human leucocyte elastase.

As for `COc1ccc(C[N+]2([O-])CCc3sc(OC(=O)C(C)(C)C)cc3C2)cc1` (stereo not shown) [SR 27262], the IC50 in assay [1] came out at 1 µM; against human leucocyte elastase, 2.6 µM.

`CC(C)(C)C(=O)Oc1cc2c(s1)CCN(Cc1ccccc1Cl)C2` [SR 26766, 5-(2-chlorobenzyl)-4,5,6,7-tetrahydrothieno[3,2-c]pyridyl-2 t-butyrate]: the values for the inhibition at 100 mg/kg in the assay with platelet aggregation (setting [2]) and in the assay on platelet aggregation (setting [3]) were 61% and 62%, respectively.

Consider `CC(C)C(=O)Oc1cc2c(s1)CCNC2` [SR 26861, 4,5,6,7-Tetrahydrothieno[3,2-c]pyrid-2-yl isobutyrate, hydrochloride], for which the values for the IC50 (in assay [1]; at human leucocyte elastase) were 6.4 µM and 2.6 µM, respectively.

For `CC(C)C(=O)Oc1cc2c(s1)CN(Cc1ccccc1Cl)CC2` [SR 26862], the IC50 in assay [1] worked out at 4 µM.

The compound `CC(=O)Oc1cc2c(s1)CCN(C(C(=O)N1CCCC1)c1ccccc1Cl)C2` (stereo not shown) [SR 26913] came in with a 50% inhibitory concentration (IC50) in assay [1] of 32 µM.

For the compound `CC(C)(C)C(=O)Oc1cc2c(o1)CC[N+]([O-])(Cc1ccccc1Cl)C2` (stereo not shown) [SR 26993], the results for the IC50 (in assay [1]; on human leucocyte elastase) were 1.7 µM and 3.1 µM, respectively.

For the compound `CC(C)C(=O)Oc1cc2c(s1)CC[N+]([O-])(Cc1ccccc1Cl)C2` (stereo not shown) [SR 26833], the IC50 in assay [1] amounted to 6 µM; against human leucocyte elastase it was 3.6 µM.

On to `CC(C)(C)C(=O)Oc1cc2c(s1)C[N+]([O-])(Cc1ccccc1Cl)CC2` (stereo not shown) [SR 26998], for which the IC50 (in assay [1]; against human leucocyte elastase) was 2.2 µM in each case.

Turning to `CC(C)(C)C(=O)Oc1cc2c(s1)CC[N+](C)(Cc1ccccc1Cl)C2` (stereo not shown) [SR 27168], in assay [1], the IC50 came out at 1.6 µM.

On to `CCCC(=O)Oc1cc2c(s1)CCN(Cc1ccc(Cl)cc1)C2` [SR 26767], for which the IC50 stood at 4.8 µM in assay [1] and 3.4 µM on human leucocyte elastase.

With `CC(C)(C)C(=O)Oc1cc2c(o1)CCN(Cc1ccccc1Cl)C2` [SR 26938, 5-(2-chlorobenzyl)-4,5,6,7-tetrahydrofuro-[3,2-c]pyrid-2yl t-butyrate], the IC50 in assay [1] is 3.6 µM; against human leucocyte elastase it was 3.1 µM.

On to `CC(=O)Oc1cc2c(s1)CC[N+]([O-])(C(C(=O)N1CCCC1)c1ccccc1Cl)C2` (stereo not shown) [SR 26914], for which half-maximal inhibition in assay [1] (IC50) was put at 25 µM.

Take `CN1CCc2sc(OC(=O)C(C)(C)C)cc2C1` [SR 26984, 5-methyl-4,5,6,7-tetrahydrothieno[3,2-c]pyrid-2-yl t-butyrate]: the IC50 in assay [1] was determined as 3.6 µM; against human leucocyte elastase, 2.6 µM.

The values above are taken from patent publication US5190938A, “Derivatives of 2-hydroxythiophene and -furan fused with a nitrogen-containing ring and their application in therapy” (Sanofi, priority 1989, dated 1993).
